In ChEMBL document CHEMBL1201862, “PubChem BioAssay data set” (2004):
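Interpolation was linear, between the two tested concentrations surrounding the appropriate level; five concentrations were tested over 48 hours in 96-well plates. Abbreviation: GI50, concentration required for 50% inhibition of growth.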 Calls of active or inactive are those of the source. No stated cut-off is given here; in the data, active = GI50 up to about 1.1 µM and inactive = higher.

Legend:
Test in all cases: NCI anticancer screen, dose series, 48 h
MCF7 = test system: MCF7
NCI/ADR-RES = test system: NCI/ADR-RES
786-0 = test system: 786-0
SK-MEL-2 = test system: SK-MEL-2
SF-268 = test system: SF-268
SNB-19 = test system: SNB-19
HCT-116 = test system: HCT-116
NCI-H460 = test system: NCI-H460
SNB-75 = test system: SNB-75
NCI-H522 = test system: NCI-H522
HL-60 = test system: HL-60
ACHN = test system: ACHN
DU-145 = test system: DU-145
BT-549 = test system: BT-549
NCI-H23 = test system: NCI-H23
OVCAR-8 = test system: OVCAR-8
LOX IMVI = test system: LOX IMVI
MDA-N = test system: MDA-N
MOLT-4 = test system: MOLT-4
CCRF-CEM = test system: CCRF-CEM
SF-295 = test system: SF-295
SR = test system: SR
SW-620 = test system: SW-620
UACC-62 = test system: UACC-62
Malme-3M = test system: Malme-3M
SF-539 = test system: SF-539
EKVX = test system: EKVX
Hs-578T = test system: Hs-578T
RXF 393 = test system: RXF 393
HOP-62 = test system: HOP-62
OVCAR-3 = test system: OVCAR-3
SK-MEL-28 = test system: SK-MEL-28
MDA-MB-435 = test system: MDA-MB-435
HCT-15 = test system: HCT-15
NCI-H226 = test system: NCI-H226
OVCAR-4 = test system: OVCAR-4
SK-OV-3 = test system: SK-OV-3
KM12 = test system: KM12
A549 = test system: A549
HOP-92 = test system: HOP-92
TK-10 = test system: TK-10
UACC-257 = test system: UACC-257
COLO 205 = test system: COLO 205
U-251 = test system: U-251
M14 = test system: M14
SK-MEL-5 = test system: SK-MEL-5
HT-29 = test system: HT-29
PC-3 = test system: PC-3
K562 = test system: K562
OVCAR-5 = test system: OVCAR-5
SN12C = test system: SN12C
T47D = test system: T47D
MDA-MB-231 = test system: MDA-MB-231
UO-31 = test system: UO-31
CAKI-1 = test system: CAKI-1
RPMI-8226 = test system: RPMI-8226
HCC 2998 = test system: HCC 2998
IGROV-1 = test system: IGROV-1
A498 = test system: A498

Measured: GI50

CC(=O)Nc1ccc(N2C(=O)CS(=O)(=O)C2c2cccc(Oc3ccccc3)c2)cc1 (centres undefined)
17.3 µM: HCT-15
inactive: MCF7 18.7 µM | NCI/ADR-RES 17.6 µM | 786-0 17.1 µM | SK-MEL-2 19.2 µM | SF-268 20.2 µM | SNB-19 18 µM | HCT-116 20.1 µM | NCI-H460 17.8 µM | SNB-75 19.4 µM | NCI-H522 17.2 µM | HL-60 23.5 µM | ACHN 16.6 µM | DU-145 33.7 µM | BT-549 16.8 µM | NCI-H23 18.5 µM | OVCAR-8 16.7 µM | LOX IMVI 15.7 µM | MDA-N 16.8 µM | MOLT-4 29.7 µM | CCRF-CEM 53.1 µM | SF-295 17 µM | SR 20.3 µM | SW-620 28.9 µM | UACC-62 13.4 µM | Malme-3M 20.4 µM | SF-539 19.5 µM | EKVX 15.4 µM | Hs-578T 28.9 µM | RXF 393 18.9 µM | HOP-62 19.3 µM | OVCAR-3 17.5 µM | SK-MEL-28 21.9 µM | MDA-MB-435 21.2 µM | NCI-H226 17.2 µM | OVCAR-4 14.2 µM | SK-OV-3 27.4 µM | KM12 17.2 µM | A549 20 µM | HOP-92 13.8 µM | TK-10 20.4 µM | UACC-257 16.8 µM | COLO 205 17.2 µM | U-251 17.7 µM | M14 18 µM | SK-MEL-5 14.7 µM | HT-29 19.1 µM | PC-3 16.8 µM | K562 18.8 µM | OVCAR-5 17.6 µM | SN12C 15.1 µM | T47D 15.9 µM | MDA-MB-231 17.4 µM | UO-31 17.5 µM

O=C1OCN(c2ccccc2)C12CCN(Cc1ccccc1)CC2
33.7 µM: HCT-15
inactive: MCF7 32.6 µM | NCI/ADR-RES 50.4 µM | 786-0 26.8 µM | SK-MEL-2 25.8 µM | SF-268 43 µM | SNB-19 67 µM | HCT-116 31.7 µM | NCI-H460 22.9 µM | SNB-75 19.4 µM | HL-60 27.8 µM | ACHN 49.2 µM | DU-145 66.4 µM | CAKI-1 45 µM | BT-549 67.1 µM | NCI-H23 53.5 µM | OVCAR-8 39.4 µM | RPMI-8226 23.7 µM | LOX IMVI 14.6 µM | MDA-N 23.6 µM | MOLT-4 13.6 µM | CCRF-CEM 15.5 µM | SF-295 16.4 µM | SR 34.4 µM | SW-620 18 µM | UACC-62 18.6 µM | Malme-3M 18.1 µM | SF-539 20.8 µM | EKVX > 100 µM | Hs-578T 23.9 µM | RXF 393 16.9 µM | HOP-62 49.3 µM | OVCAR-3 > 10 µM | SK-MEL-28 19.3 µM | HCC 2998 6.62 µM | MDA-MB-435 17.1 µM | NCI-H226 > 100 µM | OVCAR-4 35.8 µM | SK-OV-3 74.6 µM | KM12 23.7 µM | A549 41.2 µM | HOP-92 39.3 µM | TK-10 32.8 µM | UACC-257 16.7 µM | COLO 205 18.8 µM | U-251 16.9 µM | M14 18.2 µM | SK-MEL-5 19.5 µM | HT-29 16.4 µM | PC-3 24.7 µM | K562 5.35 µM | OVCAR-5 > 100 µM | SN12C 42.6 µM | T47D 23 µM | MDA-MB-231 21.8 µM | IGROV-1 59.8 µM | UO-31 51.3 µM

C#CCn1ncc2c(SC)ncnc21
> 100 µM: HCT-15
inactive: MCF7 > 100 µM | NCI/ADR-RES > 100 µM | 786-0 > 100 µM | SK-MEL-2 > 100 µM | SF-268 > 100 µM | SNB-19 > 100 µM | HCT-116 > 100 µM | NCI-H460 > 100 µM | SNB-75 33.8 µM | NCI-H522 > 100 µM | ACHN > 100 µM | DU-145 > 100 µM | CAKI-1 > 100 µM | BT-549 > 100 µM | NCI-H23 > 100 µM | OVCAR-8 > 100 µM | RPMI-8226 > 100 µM | LOX IMVI > 100 µM | MDA-N > 100 µM | MOLT-4 > 100 µM | CCRF-CEM > 100 µM | SF-295 > 100 µM | SR > 100 µM | SW-620 > 100 µM | UACC-62 > 100 µM | Malme-3M > 100 µM | SF-539 > 100 µM | EKVX 66.4 µM | A498 > 100 µM | Hs-578T > 100 µM | RXF 393 > 100 µM | HOP-62 > 100 µM | OVCAR-3 > 100 µM | SK-MEL-28 > 100 µM | HCC 2998 > 100 µM | MDA-MB-435 > 100 µM | NCI-H226 > 100 µM | OVCAR-4 > 100 µM | SK-OV-3 > 100 µM | KM12 > 100 µM | A549 > 100 µM | HOP-92 > 100 µM | TK-10 > 100 µM | UACC-257 > 100 µM | COLO 205 > 100 µM | U-251 > 100 µM | M14 > 100 µM | SK-MEL-5 > 100 µM | HT-29 > 100 µM | PC-3 > 100 µM | K562 > 100 µM | OVCAR-5 > 100 µM | SN12C > 100 µM | T47D 19 µM | MDA-MB-231 > 100 µM | IGROV-1 > 100 µM | UO-31 > 100 µM
